# Legend:
# Assay type in all cases: in vivo
# [1] = system: redroot pigweed (Amaranthus retroflexus, AMARE); experiment: Pre-emerge test, greenhouse herbicide activity screening
# Method in brief: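 Rating: 0–100 visual injury, 14 DAA. Application: acetone, 187 l/ha, 15–1000 g ai/ha, flat-fan track sprayer with nozzle 40–45 cm above soil or canopy. Post-emerge runs used 0.25% v/v surfactant on 2–3 leaf plants.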
# [2] = system: field corn (Zea mays L., var. Dekalb 535, CORN); experiment: Pre-emerge test, crop safety
# Method in brief: (§1)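 Applied at 15–1000 g ai/ha from acetone in 187 l/ha spray volume. Post-emergence applications included 0.25% v/v non-ionic surfactant and reached plants sown 8–21 days before. Pre-emergence applications were incorporated by surface watering. Efficacy or crop damage was rated on a 0–100 scale after 14 days.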
# [3] = system: upland rice (Oryza sp., var. Tebonnet, RICE); experiment: Pre-emerge test, crop safety
# Method in brief: as §1
# [4] = system: velvetleaf (Abutilon theophrasti, ABUTH); experiment: Pre-emerge test, greenhouse herbicide activity screening
# Method in brief: (§2)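 Sandy loam pots; pre-emerge: sown 1 d pre-spray, surface-watered after, then bottom-watered. Post-emerge: sown 8–21 d before, 2–3 leaf stage, + 0.25% v/v NIS, bottom-watered. Acetone, 187 l/ha track spray, 15–1000 g ai/ha. 0–100 injury score, day 14.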
# [5] = system: green foxtail (Setaria viridis, SETVI); experiment: as above
# Method in brief: as §2
# [6] = system: barnyardgrass (Echinochloa crus-galli, ECHCG); experiment: as above
# Method in brief: as §2
# [7] = system: johnsongrass (Sorghum halepense, SORHA); experiment: as above
# Method in brief: as §2
# [8] = system: sicklepod (Cassia obtusifolia, CASOB); experiment: as above
# Method in brief: as §2
# [9] = system: large crabgrass (Digitaria sanguinalis, DIGSA); experiment: as above
# Method in brief: as §2
# [10] = system: lambsquarters (Chenopodium album, CHEAL); experiment: as above
# Method in brief: as §2
# [11] = system: ivyleaf morningglory (Ipomoea hederacea, IPOHE); experiment: as above
# Method in brief: as §2
# [12] = system: field corn (Zea mays L., var. Dekalb 535, CORN); experiment: Post-emerge test, crop safety; conditions: post-emerge; for Post-emerge Herbicidal Activity CORN: crop damage rating 0-100 at 14 days after application; for phytotoxicity rating CORN (crop damage): 14 days after application, rating scale 0-100
# Method in brief: as §2
# [13] = system: upland rice (Oryza sp., var. Tebonnet, RICE); experiment: Post-emerge test, crop safety; conditions: post-emerge; for Post-emerge Herbicidal Activity RICE: crop damage rating 0-100 at 14 days after application; for phytotoxicity rating RICE (crop damage): 14 days after application, rating scale 0-100
# Method in brief: as §2
# [14] = system: velvetleaf (Abutilon theophrasti, ABUTH); experiment: Post-emerge test, greenhouse herbicide activity screening; conditions: post-emerge; for Post-emerge Herbicidal Activity ABUTH: phytotoxicity rating 0-100 at 14 days after application; for phytotoxicity rating ABUTH: 14 days after application, rating scale 0-100
# Method in brief: (§3)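 Plants grown in 10 cm pots of sandy loam mix received acetone-dissolved compounds through a moving flat-fan nozzle. Doses ranged from 15 to 1000 g ai/ha. Pre-emerge pots were seeded one day earlier, post-emerge pots 8–21 days earlier. Fourteen days on, each pot was graded 0–100 for damage.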
# [15] = system: green foxtail (Setaria viridis, SETVI); experiment: as above; conditions: post-emerge; for Post-emerge Herbicidal Activity SETVI: phytotoxicity rating 0-100 at 14 days after application; for phytotoxicity rating SETVI: 14 days after application, rating scale 0-100
# Method in brief: as §3
# [16] = system: barnyardgrass (Echinochloa crus-galli, ECHCG); experiment: as above; conditions: post-emerge; for Post-emerge Herbicidal Activity ECHCG: phytotoxicity rating 0-100 at 14 days after application; for phytotoxicity rating ECHCG: 14 days after application, rating scale 0-100
# Method in brief: as §3
# [17] = system: johnsongrass (Sorghum halepense, SORHA); experiment: as above; conditions: post-emerge; for Post-emerge Herbicidal Activity SORHA: phytotoxicity rating 0-100 at 14 days after application; for phytotoxicity rating SORHA: 14 days after application, rating scale 0-100
# Method in brief: as §3
# [18] = system: sicklepod (Cassia obtusifolia, CASOB); experiment: as above; conditions: post-emerge; for Post-emerge Herbicidal Activity CASOB: phytotoxicity rating 0-100 at 14 days after application; for phytotoxicity rating CASOB: 14 days after application, rating scale 0-100
# Method in brief: as §3
# [19] = system: large crabgrass (Digitaria sanguinalis, DIGSA); experiment: as above; conditions: post-emerge; for Post-emerge Herbicidal Activity DIGSA: phytotoxicity rating 0-100 at 14 days after application; for phytotoxicity rating DIGSA: 14 days after application, rating scale 0-100
# Method in brief: as §3
# [20] = system: lambsquarters (Chenopodium album, CHEAL); experiment: as above; conditions: post-emerge; for Post-emerge Herbicidal Activity CHEAL: phytotoxicity rating 0-100 at 14 days after application; for phytotoxicity rating CHEAL: 14 days after application, rating scale 0-100
# Method in brief: as §3
# [21] = system: redroot pigweed (Amaranthus retroflexus, AMARE); experiment: as above; conditions: post-emerge; for Post-emerge Herbicidal Activity AMARE: phytotoxicity rating 0-100 at 14 days after application; for phytotoxicity rating AMARE: 14 days after application
# Method in brief: as §3
# [22] = system: ivyleaf morningglory (Ipomoea hederacea, IPOHE); experiment: as above; conditions: post-emerge; for Post-emerge Herbicidal Activity IPOHE: phytotoxicity rating 0-100 at 14 days after application; for phytotoxicity rating IPOHE: 14 days after application, rating scale 0-100
# Method in brief: as §3
# [23] = pre-emerge, rate 63 g ai/ha, phytotoxicity rating 0-100 at 14 days after application
# [24] = pre-emerge, rate 250 g ai/ha, phytotoxicity rating 0-100 at 14 days after application
# [25] = crop damage, pre-emerge, rate 63 g ai/ha, phytotoxicity rating 0-100 at 14 days after application
# [26] = crop damage, pre-emerge, rate 250 g ai/ha, phytotoxicity rating 0-100 at 14 days after application
# [27] = 63 g ai/ha, phytotoxicity rating 0-100, 14 days after application
# [28] = 250 g ai/ha, phytotoxicity rating 0-100, 14 days after application
# [29] = 63 g ai/ha, crop damage rating 0-100, 14 days after application
# [30] = 250 g ai/ha, crop damage rating 0-100, 14 days after application
smiles,measurement,setting,value
COc1c(Cl)cc(F)c(N2C(=O)C3=C(CCCC3)C2=O)c1N [8-7],Pre-emerge Herbicidal Activity AMARE,[1]; [23],99
same,Pre-emerge Herbicidal Activity AMARE,[1]; [24],100
same,Pre-emerge Herbicidal Activity CORN,[2]; [25],0
same,Pre-emerge Herbicidal Activity CORN,[2]; [26],10
same,Pre-emerge Herbicidal Activity RICE,[3]; [25],0
same,Pre-emerge Herbicidal Activity RICE,[3]; [26],0
same,Pre-emerge Herbicidal Activity ABUTH,[4]; [23],100
same,Pre-emerge Herbicidal Activity ABUTH,[4]; [24],100
same,Pre-emerge Herbicidal Activity SETVI,[5]; [23],95
same,Pre-emerge Herbicidal Activity SETVI,[5]; [24],99
same,Pre-emerge Herbicidal Activity ECHCG,[6]; [23],0
same,Pre-emerge Herbicidal Activity ECHCG,[6]; [24],70
same,Pre-emerge Herbicidal Activity SORHA,[7]; [23],10
same,Pre-emerge Herbicidal Activity SORHA,[7]; [24],70
same,Pre-emerge Herbicidal Activity CASOB,[8]; [23],0
same,Pre-emerge Herbicidal Activity CASOB,[8]; [24],0
same,Pre-emerge Herbicidal Activity DIGSA,[9]; [23],50
same,Pre-emerge Herbicidal Activity DIGSA,[9]; [24],80
same,Pre-emerge Herbicidal Activity CHEAL,[10]; [23],95
same,Pre-emerge Herbicidal Activity CHEAL,[10]; [24],100
same,Pre-emerge Herbicidal Activity IPOHE,[11]; [23],0
same,Pre-emerge Herbicidal Activity IPOHE,[11]; [24],0
same,Post-emerge Herbicidal Activity CORN,[12]; 63 g ai/ha,10
same,Post-emerge Herbicidal Activity CORN,[12]; 250 g ai/ha,10
same,Post-emerge Herbicidal Activity RICE,[13]; 63 g ai/ha,0
same,Post-emerge Herbicidal Activity RICE,[13]; 250 g ai/ha,90
same,Post-emerge Herbicidal Activity ABUTH,[14]; 63 g ai/ha,95
same,Post-emerge Herbicidal Activity ABUTH,[14]; 250 g ai/ha,100
same,Post-emerge Herbicidal Activity SETVI,[15]; 63 g ai/ha,0
same,Post-emerge Herbicidal Activity SETVI,[15]; 250 g ai/ha,90
same,Post-emerge Herbicidal Activity ECHCG,[16]; 63 g ai/ha,0
same,Post-emerge Herbicidal Activity ECHCG,[16]; 250 g ai/ha,20
same,Post-emerge Herbicidal Activity SORHA,[17]; 63 g ai/ha,0
same,Post-emerge Herbicidal Activity SORHA,[17]; 250 g ai/ha,0
same,Post-emerge Herbicidal Activity CASOB,[18]; 63 g ai/ha,0
same,Post-emerge Herbicidal Activity CASOB,[18]; 250 g ai/ha,90
same,Post-emerge Herbicidal Activity DIGSA,[19]; 63 g ai/ha,0
same,Post-emerge Herbicidal Activity DIGSA,[19]; 250 g ai/ha,10
same,Post-emerge Herbicidal Activity CHEAL,[20]; 63 g ai/ha,95
same,Post-emerge Herbicidal Activity CHEAL,[20]; 250 g ai/ha,99
same,Post-emerge Herbicidal Activity AMARE,[21]; 63 g ai/ha,95
same,Post-emerge Herbicidal Activity AMARE,[21]; 250 g ai/ha,100
same,Post-emerge Herbicidal Activity IPOHE,[22]; 63 g ai/ha,10
same,Post-emerge Herbicidal Activity IPOHE,[22]; 250 g ai/ha,70
COc1c(Cl)cc(F)c(-n2c(=O)cc(C(F)(F)F)n(C)c2=O)c1NC(=O)OCc1ccc2ccccc2c1 [4-28],Pre-emerge Herbicidal Activity AMARE,[1]; [27],40
same,Pre-emerge Herbicidal Activity AMARE,[1]; [28],70
same,Pre-emerge Herbicidal Activity CORN,[2]; [29],0
same,Pre-emerge Herbicidal Activity CORN,[2]; [30],0
same,Pre-emerge Herbicidal Activity RICE,[3]; [29],0
same,Pre-emerge Herbicidal Activity RICE,[3]; [30],15
same,Pre-emerge Herbicidal Activity ABUTH,[4]; [27],20
same,Pre-emerge Herbicidal Activity ABUTH,[4]; [28],60
same,Pre-emerge Herbicidal Activity SETVI,[5]; [27],20
same,Pre-emerge Herbicidal Activity SETVI,[5]; [28],60
same,Pre-emerge Herbicidal Activity ECHCG,[6]; [27],0
same,Pre-emerge Herbicidal Activity ECHCG,[6]; [28],0
same,Pre-emerge Herbicidal Activity SORHA,[7]; [27],0
same,Pre-emerge Herbicidal Activity SORHA,[7]; [28],0
same,Pre-emerge Herbicidal Activity CASOB,[8]; [27],0
same,Pre-emerge Herbicidal Activity CASOB,[8]; [28],0
same,Pre-emerge Herbicidal Activity DIGSA,[9]; [27],0
same,Pre-emerge Herbicidal Activity DIGSA,[9]; [28],0
same,Pre-emerge Herbicidal Activity CHEAL,[10]; [27],70
same,Pre-emerge Herbicidal Activity CHEAL,[10]; [28],100
same,Pre-emerge Herbicidal Activity IPOHE,[11]; [27],0
same,Pre-emerge Herbicidal Activity IPOHE,[11]; [28],0
same,phytotoxicity rating CORN (crop damage),[12]; 63 g ai/ha,0
same,phytotoxicity rating CORN (crop damage),[12]; 250 g ai/ha,5
same,phytotoxicity rating RICE (crop damage),[13]; 63 g ai/ha,10
same,phytotoxicity rating RICE (crop damage),[13]; 250 g ai/ha,15
same,phytotoxicity rating ABUTH,[14]; 63 g ai/ha,100
same,phytotoxicity rating ABUTH,[14]; 250 g ai/ha,100
same,phytotoxicity rating SETVI,[15]; 63 g ai/ha,10
same,phytotoxicity rating SETVI,[15]; 250 g ai/ha,30
same,phytotoxicity rating ECHCG,[16]; 63 g ai/ha,0
same,phytotoxicity rating ECHCG,[16]; 250 g ai/ha,20
same,phytotoxicity rating SORHA,[17]; 63 g ai/ha,0
same,phytotoxicity rating SORHA,[17]; 250 g ai/ha,10
same,phytotoxicity rating CASOB,[18]; 63 g ai/ha,50
same,phytotoxicity rating CASOB,[18]; 250 g ai/ha,50
same,phytotoxicity rating DIGSA,[19]; 63 g ai/ha,0
same,phytotoxicity rating DIGSA,[19]; 250 g ai/ha,20
same,phytotoxicity rating CHEAL,[20]; 63 g ai/ha,70
same,phytotoxicity rating CHEAL,[20]; 250 g ai/ha,90
same,phytotoxicity rating AMARE,"[21]; 63 g ai/ha, rating scale 0-100 (0 no damage, 100 complete death)",80
same,phytotoxicity rating AMARE,"[21]; 250 g ai/ha, rating scale 0-100",100
same,phytotoxicity rating IPOHE,[22]; 63 g ai/ha,60
same,phytotoxicity rating IPOHE,[22]; 250 g ai/ha,80

# From patent publication US6355799B1, “Substituted benzene compounds, process for their preparation, and herbicidal and defoliant compositions containing them” (ISK Americas Incorporated, priority 1997, dated 2002)
